Results from patent US8980933B2, “Combretastatin analogs for use in the treatment of cancer” (Universitat Bayreuth, priority 2010, dated 2015).

How the values were obtained:
Type in all cases: cell-based, human
HL-60 cells [1] = assay: Mitochondrial membrane assay (JC-1), HL-60; conditions: 5 μM, red/green fluorescence ratio relative to untreated controls (100%), mean ± SD
Description: (§1) Values represent means of four independent experiments±standard deviation.
(§2) Changes in mitochondrial membrane potential were determined by the Mitochondrial Membrane Detection Kit (Stratagene, La Jolla, Calif., USA) according to the manufacturer's procedure. 72 h following treatment with 5 μM of the test compounds, cell samples were centrifuged at 400 g for 5 min. The pellets were resuspended in 500 μL diluted JC-1 solution, incubated at 37° C. for 15 min (HL-60) and then centrifuged again for 5 min at 400 g. After washing, the pellets were resuspended in 100 μL PBS and transferred into the wells of a black 96-well plate. The red (λex=585 nm, λem=590 nm) and green (λex=510 nm, λem=527 nm) fluorescence intensities were measured and their ratio was calculated.

[2] = system: KB-V1/Vbl cervical carcinoma cells; assay: MTT cell growth inhibition, KB-V1/Vbl; conditions: KB-V1/Vbl (Pgp+)
Description: The MCF-7/Topo cells were grown in E-MEM medium (Sigma) supplemented with 2.2 g/L NaHCO3, 110 mg/L sodium pyruvate and 5% FCS. The cells were maintained in a moisture-saturated atmosphere (5% CO2) at 37° C. in 75-mL culture flasks (Nunc, Wiesbaden, Germany). They were serially passaged following trypsinisation by 0.05% trypsin/0.02% EDTA (PAA laboratories, Clbe, Germany). Mycoplasma contamination was routinely monitored, and only mycoplasma-free cultures were used.
HL-60 leukemia cells (5×10^5/mL), and cells (5×10^4/mL) of 518A2 melanoma, HT-29 colon, KB-V1/Vbl cervix and MCF-7/Topo breast carcinoma were seeded out in 96-well tissue culture plates and cultured for 24 h. […] Blank and solvent controls were treated identically. MTT in phosphate buffered saline (5 mg/mL) was added to a final concentration of 0.05% (HL-60, 518A2) or 0.1% (HT-29, KB-V1/Vbl, MCF-7/Topo). After 2 h the formazan precipitate was dissolved in 10% sodium dodecylsulfate in DMSO containing 0.6% acetic acid in the case of the HL-60 cells. For the adherent 518A2, KB-V1/Vbl, MCF-7/Topo and HT-29 cells the microplates were swiftly turned to discard the medium before adding the solvent mixture. The microplates were gently shaken in the dark for 30 min and absorbance at 570 nm and 630 nm (background) was measured with an ELISA plate reader. All experiments were carried out in quadruplicate; the percentage of viable cells was calculated as the mean±SD with controls set to 100%.

518A2 cells [3] = assay: Mitochondrial membrane assay (JC-1), 518A2; conditions: 5 μM, red/green fluorescence ratio relative to untreated controls (100%), mean ± SD
Description: as §1, §2

[4] = system: MCF-7/Topo breast carcinoma cells; assay: MTT cell growth inhibition, MCF-7/Topo; conditions: MCF-7/Topo (BCRP+)
Description: The effects of the compounds 5b, 6b, 8a, and 8e according to the present invention and of the reference compound 25f (Wang et al., J. Med. Chem. 2002, 45, 1697-1711) on cells of the following human tumor cell lines were evaluated: 518A2 melanoma, HL-60 leukemia, HT-29 colon carcinoma, KB-V1/Vbl cervical carcinoma, and MCF-7/Topo breast carcinoma.
The HL-60 cells were obtained from the German Collection of Biological Material (DSMZ), Braunschweig, Germany; the human 518A2 melanoma cells as well as the testicular germ cell tumor cell lines H12.1 and 1411HP were cultured in the department of oncology and hematology, Medical Faculty of the Martin-Luther University, Halle, Germany; the KBV1/Vbl and the MCF-7/Topo cells were obtained from the Institute of Pharmacy of the University Regensburg, Germany; and the colon HT-29 cells from the University Hospital Erlangen, Germany. The HL-60 and the HT-29 cells were grown in RPMI-1640 medium supplemented with 10% fetal calf serum (FCS), 100 IU/mL penicillin G, 100 μg/mL streptomycin sulfate, 0.25 μg/mL amphotericin B and 250 μg/mL gentamycine (all from Gibco, Egenstein, Germany). The 518A2 and the KB-V1/Vbl cells were cultured in Dulbecco's Modified Eagle Medium (D-MEM, Gibco) containing 10% FCS, 100 IU/mL penicillin G, 100 μg/mL streptomycin sulfate, 0.25 μg/mL amphotericin B and 250 μg/mL gentamycine. The MCF-7/Topo cells were grown in E-MEM medium (Sigma) supplemented with 2.2 g/L NaHCO3, 110 mg/L sodium pyruvate and 5% FCS. The cells were maintained in a moisture-saturated atmosphere (5% CO2) at 37° C. in 75-mL culture flasks (Nunc, Wiesbaden, Germany). They were serially passaged following trypsinisation by 0.05% trypsin/0.02% EDTA (PAA laboratories, Clbe, Germany). Mycoplasma contamination was routinely monitored, and only mycoplasma-free cultures were used.
MTT [3-(4,5-dimethylthiazol-2-yl)-2,5-diphenyltetrazolium bromide](ABCR) was used to identify viable cells which reduce it to a violet formazan (Mosmann, J. Immunol. Methods 1983, 65, 55-63). HL-60 leukemia cells (5×10^5/mL), and cells (5×10^4/mL) of 518A2 melanoma, HT-29 colon, KB-V1/Vbl cervix and MCF-7/Topo breast carcinoma were seeded out in 96-well tissue culture plates and cultured for 24 h. Incubation (5% CO2, 95% humidity, 37° C.) of the cells following treatment with the test compounds was continued for 24, 48 or 72 h. Blank and solvent controls were treated identically. […] The microplates were gently shaken in the dark for 30 min and absorbance at 570 nm and 630 nm (background) was measured with an ELISA plate reader. All experiments were carried out in quadruplicate; the percentage of viable cells was calculated as the mean±SD with controls set to 100%.

518A2 cells [5] = assay: ROS generation, NBT assay, 518A2; conditions: 50 μM, relative to untreated controls (1%), mean ± SD
Description: (§3) The generation of reactive oxygen species (ROS) in tumor cells is a sign of cellular stress resulting in severe damage of cellular components such as DNA, lipids or proteins.
(§4) For the NBT assay, HL-60 cells (0.5·10^6/mL) were plated in 96-well tissue culture plates, and test compounds were added after 24 h incubation at 37° C. to achieve a final concentration of 50 μM. […] After removal of the cell medium by centrifugation, the cells in each well were resuspended in 100 μL 0.1% NBT, and the plates were placed in the incubator for 1 h. The reduced NBT was solubilized with 100 μl 2 M KOH and 130 μl DMSO for 30 min. The absorbance was measured for each well at 630 and 405 nm (background) using an ELISA plate reader. The adherent 518A2 cells (0.5·10^4/mL) were seeded out in 96-well tissue culture plates after trypsinization and incubation for 24 h at 37° C. to allow attachment, then treated similarly, only that the medium was removed prior to incubation with NBT for 4 h. All experiments were carried out in quadruplicate.

HL-60 cells [6] = assay: ROS generation, NBT assay, HL-60; conditions: 50 μM, relative to untreated controls (1%), mean ± SD
Description: as §3, §4

SMILES	Intact mitochondria [%] in HL-60 cells after 72 h (HL-60 cells [1]) [%]	efficacy (comparison) [2]	Intact mitochondria [%] in 518A2 cells after 72 h (518A2 cells [3]) [%]	cytotoxicity / efficacy (comparison) [4]	NBT Reduction [%] in 518A2 cells after 24 h (518A2 cells [5]) [%]	NBT Reduction [%] in HL-60 cells after 24 h (HL-60 cells [6]) [%]
COc1cc(-c2ncn(C)c2-c2ccc3c(c2)c(Cl)cn3C)cc(N)c1OC [compound 8e, 1-methyl-4-(3-amino-4,5-dimethoxyphenyl)-5-(N-methyl-3-chloroindol-5-yl)-imidazole]	60 ± 15	greater efficacy than 25f and 5b/6b	77 ± 8	greater efficacy than 25f and 5b/6b	1.6 ± 0.3	6.4 ± 0.3
COc1ccc(-c2c(-c3cc(N)c(OC)c(OC)c3)ncn2C)cc1O [8c, 1-Methyl-4-(3′-amino-4′,5′-dimethoxyphenyl)-5-(3″-hydroxy-4-methoxyphenyl)-imidazole]	76 ± 19		94 ± 7		1.1 ± 0.0	1.8 ± 0.3
COc1cc(-c2ncoc2-c2ccc(N(C)C)cc2)cc(N)c1OC [8b, 4-(3′-Amino-4′,5′-dimethoxyphenyl)-5-(4″-N,N-dimethylaminophenyl)-oxazole]	62 ± 12		82 ± 8		1.4 ± 0.3	3.3 ± 0.2
COc1ccc(-c2c(-c3cc(Cl)c(OC)c(OC)c3)ncn2C)cc1F [compound 5c, 1-Methyl-4-(3′-chloro-4′,5′-dimethoxyphenyl)-5-(3″-fluoro-4-methoxyphenyl)-imidazole]	55 ± 7		84 ± 6		1.6 ± 0.1	4.8 ± 0.5
COc1cc(-c2ncn(C)c2-c2ccc(N(C)C)cc2)cc(Br)c1OC [compound 6d, 1-Methyl-4-(3′-bromo-4′,5′-dimethoxyphenyl)-5-(4″-N,N-dimethylaminophenyl)-imidazole]	63 ± 13		82 ± 7		1.6 ± 0.3	6.7 ± 0.8
COc1ccc(-c2c(-c3cc(N)c(OC)c(OC)c3)ncn2C)cc1F [8d, 1-Methyl-4-(3′-amino-4′,5′-dimethoxyphenyl)-5-(3″-fluoro-4-methoxyphenyl)-imidazole]	90 ± 22		98 ± 15		1.2 ± 0.1	1.4 ± 0.2
COc1ccc(-c2c(-c3cc(Br)c(OC)c(OC)c3)ncn2C)cc1F [compound 6c, 1-Methyl-4-(3′-bromo-4′,5′-dimethoxyphenyl)-5-(3″-fluoro-4″-methoxyphenyl)-imidazole]	60 ± 15		89 ± 10		1.4 ± 0.3	3.9 ± 0.1
COc1cc(-c2ncn(C)c2-c2ccc(N(C)C)cc2)cc(Cl)c1OC [compound 5d, 1-Methyl-4-(3′-chloro-4′,5′-dimethoxyphenyl)-5-(4″-N,N-dimethylaminophenyl)-imidazole]	61 ± 13		80 ± 7		2.4 ± 0.4	6.0 ± 0.9
